Data set [1] concerns Escherichia coli. The experiment in a line: Antibacterial activity against Escherichia coli ATCC 25922 assessed as inhibition in bacterial growth incubated for 20 to 24 hrs by CLSI based broth microdilution method. The class given is functional. The settings on record: time 20-24 hrs. A general note: In broth dilution the organism is exposed to a series of concentrations in liquid medium.

Data set [2] has as its system Acinetobacter baumannii. As to the kind of experiment: Antibacterial activity against Acinetobacter baumannii ATCC 19606 assessed as inhibition in bacterial growth incubated for 20 to 24 hrs by CLSI based broth microdilution method. The class given is functional. The settings on record: time 20-24 hrs.
Data set [3] relates to Klebsiella pneumoniae. The experiment in a line: Antibacterial activity against Klebsiella pneumoniae ATCC BAA-1705 assessed as inhibition in bacterial growth incubated for 20 to 24 hrs by CLSI based broth microdilution method. In kind it is functional. The settings on record: time 20-24 hrs.
The test system of data set [4] is Pseudomonas aeruginosa. The experiment in a line: Antibacterial activity against Pseudomonas aeruginosa ATCC 27853 assessed as inhibition in bacterial growth incubated for 20 to 24 hrs by CLSI based broth microdilution method. In kind it is functional. The note with it: time 20-24 hrs.
Data set [5] deals with DNA gyrase (Escherichia coli, UniProt P0AES4+P0AES6). As to the kind of experiment: Inhibition of Escherichia coli DNA gyrase incubated for 80 mins by Transcreener ADP2 FI assay. In kind it is protein-complex assay.
Data set [6] concerns the target T1, hERG (KCNH2) (Homo sapiens, UniProt Q12809). The experiment in a line: Inhibition of hERG potassium channel expressed in CHO cells at 10 uM by electrophysiological patch clamp assay relative to control. The settings on record: CHO cells expressing hERG. In kind it is toxicity, cell-based. (In general: Block of hERG is tested as a sign of cardiac risk.)
Data set [7] relates to Escherichia coli. The experiment in a line: Antibacterial activity against Escherichia coli K-12 BW25113 assessed as inhibition in bacterial growth incubated for 20 to 24 hrs by CLSI based broth microdilution method. In kind it is functional.
Data set [8] concerns Escherichia coli. The experiment in a line: Antibacterial activity against Escherichia coli K-12 BW25113 deltaTolC assessed as inhibition in bacterial growth incubated for 20 to 24 hrs by CLSI based broth microdilution method. The class given is functional. The settings on record: time 20-24 hrs.
Data set [9] has as its system Escherichia coli. The experiment in a line: Antibacterial activity against Escherichia coli ATCC 35218 assessed as inhibition in bacterial growth incubated for 20 to 24 hrs by CLSI based broth microdilution method. The class given is functional.
The test system of data set [10] is Escherichia coli. The experiment in a line: Antibacterial activity against Escherichia coli ATCC BAA-2340 assessed as inhibition in bacterial growth incubated for 20 to 24 hrs by CLSI based broth microdilution method. The class given is functional.
In data set [11] the test system is Acinetobacter baumannii. The experiment in a line: Antibacterial activity against Acinetobacter baumannii ATCC 51432 assessed as inhibition in bacterial growth incubated for 20 to 24 hrs by CLSI based broth microdilution method. The class given is functional.
Data set [12] deals with Acinetobacter baumannii. As to the kind of experiment: Antibacterial activity against Acinetobacter baumannii ATCC BAA-747 assessed as inhibition in bacterial growth incubated for 20 to 24 hrs by CLSI based broth microdilution method. In kind it is functional.
Data set [13] has as its system Klebsiella pneumoniae. The experiment in a line: Antibacterial activity against Klebsiella pneumoniae ATCC 10031 assessed as inhibition in bacterial growth incubated for 20 to 24 hrs by CLSI based broth microdilution method. The class given is functional. The note with it: time 20-24 hrs.
Data set [14] relates to Klebsiella pneumoniae. As to the kind of experiment: Antibacterial activity against Klebsiella pneumoniae ATCC 700603 assessed as inhibition in bacterial growth incubated for 20 to 24 hrs by CLSI based broth microdilution method. The class given is functional.
Data set [15] has as its system Klebsiella pneumoniae. The experiment in a line: Antibacterial activity against Klebsiella pneumoniae ATCC BAA-2146 assessed as inhibition in bacterial growth incubated for 20 to 24 hrs by CLSI based broth microdilution method. The class given is functional. The settings on record: Klebsiella pneumoniae, ATCC BAA-2146, time 20-24 hrs; read-out: MIC.
In data set [16] the test system is Pseudomonas aeruginosa. As to the kind of experiment: Antibacterial activity against Pseudomonas aeruginosa NCTC 13437 assessed as inhibition in bacterial growth incubated for 20 to 24 hrs by CLSI based broth microdilution method. The class given is functional.
Data set [17] has as its system Pseudomonas aeruginosa. The experiment in a line: Antibacterial activity against Pseudomonas aeruginosa NCTC 11451 assessed as inhibition in bacterial growth incubated for 20 to 24 hrs by CLSI based broth microdilution method. In kind it is functional.
In data set [18] the test system is Staphylococcus aureus. As to the kind of experiment: Antibacterial activity against Staphylococcus aureus ATCC BAA-1556 assessed as inhibition in bacterial growth incubated for 20 to 24 hrs by CLSI based broth microdilution method. The class given is functional.
The subject of data set [19] is Staphylococcus aureus. The experiment in a line: Antibacterial activity against Staphylococcus aureus ATCC 29213 assessed as inhibition in bacterial growth incubated for 20 to 24 hrs by CLSI based broth microdilution method. In kind it is functional. The settings on record: time 20-24 hrs.
Data set [20] is described as follows: Inhibition of Escherichia coli topoisomerase 4 incubated for 120 mins by Transcreener ADP2 FI assay.
Data set [21] concerns the target T1, hERG (KCNH2). As to the kind of experiment: Inhibition of hERG potassium channel expressed in CHO cells at 1 uM by electrophysiological patch clamp assay relative to control. In kind it is toxicity, cell-based. The note with it: CHO cells expressing hERG.
The target in data set [22] is Voltage-gated inwardly rectifying potassium channel KCNH2 (Homo sapiens, UniProt Q12809). As to the kind of experiment: (§1) Inhibition of hERG potassium channel expressed in CHO cells by electrophysiological patch clamp assay. In kind it is toxicity, cell-based. The note with it: for IC20: human, cho.
Data set [23] has as its target T1, hERG (KCNH2). The description is as §1. The class given is toxicity, cell-based. The settings on record: human, CHO cells expressing hERG.
Setting [24] is: Escherichia coli, K-12 BW25113, time 20-24 hrs, read-out: MIC.
Where [25] appears, read: Escherichia coli, ATCC 35218, time 20-24 hrs, read-out: MIC.
[26] abbreviates: Escherichia coli, ATCC BAA-2340, time 20-24 hrs, read-out: MIC.
The mark [27] stands for this setting: Acinetobacter baumannii, ATCC 51432, time 20-24 hrs, read-out: MIC.
Setting [28] is: Acinetobacter baumannii, ATCC BAA-747, time 20-24 hrs, read-out: MIC.
Setting [29] is: Klebsiella pneumoniae, ATCC 700603, time 20-24 hrs, read-out: MIC.
[30] abbreviates: Pseudomonas aeruginosa, NCTC 13437, time 20-24 hrs, read-out: MIC.
[31] abbreviates: Pseudomonas aeruginosa, NCTC 11451, time 20-24 hrs, read-out: MIC.
Where [32] appears, read: Staphylococcus aureus, ATCC BAA-1556, time 20-24 hrs, read-out: MIC.
The mark [33] stands for this setting: Staphylococcus aureus, ATCC 29213, read-out: MIC.

In brackets after ≈: the same amount, converted by molar mass.

The text below walks through data of ChEMBL document CHEMBL5390317, “Novel Indane-Containing NBTIs with Potent Anti-Gram-Negative Activity and Minimal hERG Inhibition” (ACS Med Chem Lett, 2023).

As a reminder, the MIC is the lowest concentration found to suppress growth. A word on the IC50: it is the midpoint of a concentration-inhibition curve. A high value points to a need for much substance. As usually defined, the inhibition is the percentage by which the read-out fell short of the control. A higher inhibition goes with a response far below the control. The term IC20 denotes the concentration needed for an effect of 20%. The low end stands for greater potency, the high end for weaker potency.

Sequence of Voltage-gated inwardly rectifying potassium channel KCNH2 (Q12809 whole entry): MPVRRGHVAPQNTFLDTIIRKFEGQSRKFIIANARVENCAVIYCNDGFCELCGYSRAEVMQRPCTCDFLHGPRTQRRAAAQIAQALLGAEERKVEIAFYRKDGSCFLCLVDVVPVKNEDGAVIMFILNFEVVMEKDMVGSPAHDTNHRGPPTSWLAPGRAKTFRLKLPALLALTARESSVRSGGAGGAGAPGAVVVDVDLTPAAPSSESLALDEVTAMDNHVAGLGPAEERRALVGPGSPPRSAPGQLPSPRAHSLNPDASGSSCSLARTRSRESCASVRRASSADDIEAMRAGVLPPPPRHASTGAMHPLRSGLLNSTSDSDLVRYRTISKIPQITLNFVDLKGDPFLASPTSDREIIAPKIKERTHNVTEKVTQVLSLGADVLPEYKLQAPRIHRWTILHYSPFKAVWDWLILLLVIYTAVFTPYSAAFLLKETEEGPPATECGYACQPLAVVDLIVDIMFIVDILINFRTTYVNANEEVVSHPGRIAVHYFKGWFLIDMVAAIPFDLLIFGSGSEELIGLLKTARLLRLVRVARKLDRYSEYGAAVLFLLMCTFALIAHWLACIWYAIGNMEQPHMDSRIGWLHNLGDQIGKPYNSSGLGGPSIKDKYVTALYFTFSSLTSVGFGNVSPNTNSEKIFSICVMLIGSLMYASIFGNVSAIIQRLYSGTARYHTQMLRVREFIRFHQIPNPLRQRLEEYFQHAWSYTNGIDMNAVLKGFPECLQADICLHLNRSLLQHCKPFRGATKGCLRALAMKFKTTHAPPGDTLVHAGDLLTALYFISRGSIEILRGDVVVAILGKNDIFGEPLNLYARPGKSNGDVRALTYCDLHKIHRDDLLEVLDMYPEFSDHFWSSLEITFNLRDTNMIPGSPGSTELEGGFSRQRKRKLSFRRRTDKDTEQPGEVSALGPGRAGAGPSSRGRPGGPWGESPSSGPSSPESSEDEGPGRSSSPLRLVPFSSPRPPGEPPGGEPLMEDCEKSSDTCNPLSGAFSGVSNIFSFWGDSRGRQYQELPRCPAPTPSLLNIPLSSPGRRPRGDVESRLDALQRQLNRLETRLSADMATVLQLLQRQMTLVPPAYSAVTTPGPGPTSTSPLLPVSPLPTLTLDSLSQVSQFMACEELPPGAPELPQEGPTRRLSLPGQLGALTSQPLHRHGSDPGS
T1 sequence (Q12809 whole entry): as above

As to `N#Cc1cc(OC2CNC2)cc2c1CC(CNCCC1CN(c3ccc4c(n3)NC(=O)CO4)C(=O)O1)C2` (stereo not given), the MIC was 0.5 µg/mL (≈ 0.991 µM) in data set [1]; 8 µg/mL (≈ 15.9 µM) in data set [2]; 4 µg/mL (≈ 7.93 µM) in [3]; 0.125 µg/mL (≈ 0.248 µM) in data set [4]; 0.125 µg/mL (≈ 0.248 µM) in data set [7] (setting [24]); ≤ 0.06 µg/mL in [8]. Further, the MIC in data set [9] (setting [25]) was 0.5 µg/mL (≈ 0.991 µM); in [10] (setting [26]), 0.5 µg/mL (≈ 0.991 µM); in data set [11] (setting [27]) it was 4 µg/mL (≈ 7.93 µM); in data set [12] (setting [28]), 4 µg/mL (≈ 7.93 µM); in [13], ≤ 0.06 µg/mL; in [14] (setting [29]) it was 4 µg/mL (≈ 7.93 µM). The MIC was 8 µg/mL (≈ 15.9 µM) in [15]; 0.5 µg/mL (≈ 0.991 µM) in data set [16] (setting [30]); 1 µg/mL (≈ 1.98 µM) in data set [17] (setting [31]); 0.5 µg/mL (≈ 0.991 µM) in data set [18] (setting [32]); ≤ 0.06 µg/mL in [19] (setting [33]). Besides, the IC50 was 51 nM in data set [5], 29 nM in [20] and > 20 µM in data set [22]. In [6], the inhibition at 10 µM is < 1%. Moreover, the inhibition at 1 µM in data set [21] is < 1%. In addition, the IC20 in data set [23] was > 10 µM.
With `N#Cc1cccc2c1CC(CNCCC1CN(c3ccc4c(n3)NC(=O)CO4)C(=O)O1)C2` (stereo not given), the MIC is ≤ 0.06 µg/mL in data set [1]; 0.125 µg/mL (≈ 0.288 µM) in [2]; 1 µg/mL (≈ 2.31 µM) in data set [3]; 0.5 µg/mL (≈ 1.15 µM) in data set [4]; ≤ 0.06 µg/mL in [7] (setting [24]); ≤ 0.06 µg/mL in data set [8]. The MIC in data set [9] (setting [25]) was 0.125 µg/mL (≈ 0.288 µM); in [10] (setting [26]), ≤ 0.06 µg/mL; in [11] (setting [27]) it was ≤ 0.06 µg/mL; in data set [12] (setting [28]), ≤ 0.06 µg/mL; in data set [13] it was ≤ 0.06 µg/mL; in data set [14] (setting [29]), 1 µg/mL (≈ 2.31 µM). For the same compound, the minimum inhibitory concentration (MIC) in data set [15] was 4 µg/mL (≈ 9.23 µM); in data set [16] (setting [30]) it was 0.5 µg/mL (≈ 1.15 µM); in data set [17] (setting [31]), 1 µg/mL (≈ 2.31 µM); in data set [18] (setting [32]), ≤ 0.06 µg/mL; in data set [19] (setting [33]), ≤ 0.06 µg/mL. The same compound registered an inhibition at 10 µM in data set [6] of 99%. In data set [20], this compound registered an IC50 of 4 nM. In [21], the inhibition at 1 µM worked out at 55%. Besides, in data set [23], the IC20 was determined as 0.45 µM.
As for `C[C@@H](C(=O)Nc1cc(F)c2c(c1)CC(CNCCC1CN(c3cnc4c(n3)NC(=O)CO4)C(=O)O1)C2)N(C)C` (stereo in doubt; 2i), the MIC result in data set [7] (time 20-24 hrs) was “<=0.06 ug ml-1”; in data set [8], ≤ 0.06 µg/mL; in [9] (setting [25]), 0.125 µg/mL (≈ 0.231 µM); in [10] (setting [26]), 0.125 µg/mL (≈ 0.231 µM); in data set [11] (setting [27]), 8 µg/mL (≈ 14.8 µM); in [12] (setting [28]), 0.25 µg/mL (≈ 0.462 µM). Also, the MIC in data set [13] is ≤ 0.06 µg/mL; in data set [14] (setting [29]), 2 µg/mL (≈ 3.69 µM); in data set [15] it was 8 µg/mL (≈ 14.8 µM); in [16] (setting [30]), 2 µg/mL (≈ 3.69 µM); in [17] (setting [31]), 4 µg/mL (≈ 7.39 µM); in data set [18] (setting [32]) it was 1 µg/mL (≈ 1.85 µM). In [19] (setting [33]), the minimum inhibitory concentration (MIC) is 0.25 µg/mL (≈ 0.462 µM). In addition, in data set [22], the midpoint of inhibition, the IC50, lay at 105 µM. For the same compound, the IC20 in [23] stood at 33 µM.
For `C[C@H](C(=O)Nc1cc(F)c2c(c1)CC(CNCCC1CN(c3cnc4c(n3)NC(=O)CO4)C(=O)O1)C2)N(C)C` (stereo in doubt; 2h), the MIC in data set [11] (time 20-24 hrs) was found to be 8 µg/mL (≈ 14.8 µM); in data set [12] (time 20-24 hrs), 0.125 µg/mL (≈ 0.231 µM); in data set [14] (time 20-24 hrs) it was 2 µg/mL (≈ 3.69 µM); in data set [16] (time 20-24 hrs), 4 µg/mL (≈ 7.39 µM); in data set [17] (time 20-24 hrs), 4 µg/mL (≈ 7.39 µM); in [18] (time 20-24 hrs), 1 µg/mL (≈ 1.85 µM). In [22], this compound gave an IC50 of 126 µM. The compound further returned an IC20 in data set [22] of 55 µM.
`C[C@@H](C(=O)Nc1cc(F)c2c(c1)CC(CNCCC1CN(c3cnc4c(n3)NC(=O)CO4)C(=O)O1)C2)N(C)C` (stereo in doubt; 2j): the MIC was 0.125 µg/mL (≈ 0.231 µM) in data set [7] (time 20-24 hrs); 0.25 µg/mL (≈ 0.462 µM) in data set [9] (time 20-24 hrs); 0.25 µg/mL (≈ 0.462 µM) in data set [10] (time 20-24 hrs); 0.5 µg/mL (≈ 0.923 µM) in [12] (time 20-24 hrs); 2 µg/mL (≈ 3.69 µM) in data set [16] (time 20-24 hrs); 0.25 µg/mL (≈ 0.462 µM) in [19]. Also, in [22], the IC50 is 178 µM. Moreover, the IC20 in [22] was 66 µM.
